These results are taken from ChEMBL document CHEMBL3611987, “Design and synthesis of conformationally constrained hydroxylated 4-phenyl-2-aryl chromenopyridines as novel and selective topoisomerase II-targeted antiproliferative agents” (Bioorg Med Chem, 2015).

Structures are written as SMILES.

Assay [1] has as its target DNA topoisomerase 2-alpha (Homo sapiens) (UniProt P11388). Kind of assay: Inhibition of human DNA topoisomerase 2alpha assessed as relaxation of supercoiled pBR322 DNA at 20 uM after 30 mins using ethidium bromide staining by agarose gel electrophoresis.
Assay [2] deals with T47D. Kind of assay: Cytotoxicity against human T47D cells after 2 days by CCK8 assay. In kind it is functional, cell-based. The following applies: 48 h. (In general: Formazan colour is commonly taken as a measure of viable cells.)
For assay [3], the system named is DU-145. Kind of assay: Cytotoxicity against human DU145 cells after 2 days by CCK8 assay. The assay is classed as functional, cell-based. The settings on record: DU-145, 48 h.
A short description of assay [4]: Cytotoxicity against human MCF10A cells after 2 days by CCK8 assay. In kind it is cell-based. The settings on record: MCF-10A, 48 h.
Assay [5] concerns the target T1, DNA topoisomerase 1 (Homo sapiens) (UniProt P11387).
T1 sequence (whole entry): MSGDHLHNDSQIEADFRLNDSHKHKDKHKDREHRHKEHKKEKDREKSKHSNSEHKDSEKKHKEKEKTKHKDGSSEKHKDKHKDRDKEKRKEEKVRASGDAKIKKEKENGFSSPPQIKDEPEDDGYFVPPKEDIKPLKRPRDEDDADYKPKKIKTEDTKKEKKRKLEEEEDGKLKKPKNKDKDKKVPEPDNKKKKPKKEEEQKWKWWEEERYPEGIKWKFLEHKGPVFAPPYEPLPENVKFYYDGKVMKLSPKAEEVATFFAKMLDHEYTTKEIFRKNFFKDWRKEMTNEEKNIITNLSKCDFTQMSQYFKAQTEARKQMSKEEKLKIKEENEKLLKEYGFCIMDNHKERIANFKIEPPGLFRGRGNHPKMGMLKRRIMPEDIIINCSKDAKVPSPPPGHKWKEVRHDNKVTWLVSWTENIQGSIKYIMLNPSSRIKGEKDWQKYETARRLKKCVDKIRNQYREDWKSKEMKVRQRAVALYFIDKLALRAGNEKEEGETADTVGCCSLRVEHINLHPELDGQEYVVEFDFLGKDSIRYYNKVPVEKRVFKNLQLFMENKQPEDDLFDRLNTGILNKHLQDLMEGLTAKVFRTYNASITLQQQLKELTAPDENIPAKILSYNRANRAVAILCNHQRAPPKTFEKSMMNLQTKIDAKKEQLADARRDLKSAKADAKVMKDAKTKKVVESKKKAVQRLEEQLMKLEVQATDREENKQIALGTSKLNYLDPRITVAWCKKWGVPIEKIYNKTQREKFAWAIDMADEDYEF
Kind of assay: Inhibition of human recombinant DNA topoisomerase 1 assessed as relaxation of supercoiled pBR322 DNA at 100 uM after 30 mins using ethidium bromide staining by agarose gel electrophoresis.

The subject of assay [6] is HCT-15. Kind of assay: Cytotoxicity against human HCT15 cells after 2 days by CCK8 assay. The assay is classed as functional, cell-based. The settings on record: HCT-15, 48 h.
The target in assay [7] is DNA topoisomerase 2-alpha (Homo sapiens) (UniProt P11388). Kind of assay: Inhibition of human DNA topoisomerase 2alpha assessed as relaxation of supercoiled pBR322 DNA at 100 uM after 30 mins using ethidium bromide staining by agarose gel electrophoresis.
Assay [8] addresses T1, DNA topoisomerase 1 (Homo sapiens). Kind of assay: Inhibition of human recombinant DNA topoisomerase 1 assessed as relaxation of supercoiled pBR322 DNA at 20 uM after 30 mins using ethidium bromide staining by agarose gel electrophoresis.

Sequence of DNA topoisomerase 2-alpha (Homo sapiens) (P11388 whole entry): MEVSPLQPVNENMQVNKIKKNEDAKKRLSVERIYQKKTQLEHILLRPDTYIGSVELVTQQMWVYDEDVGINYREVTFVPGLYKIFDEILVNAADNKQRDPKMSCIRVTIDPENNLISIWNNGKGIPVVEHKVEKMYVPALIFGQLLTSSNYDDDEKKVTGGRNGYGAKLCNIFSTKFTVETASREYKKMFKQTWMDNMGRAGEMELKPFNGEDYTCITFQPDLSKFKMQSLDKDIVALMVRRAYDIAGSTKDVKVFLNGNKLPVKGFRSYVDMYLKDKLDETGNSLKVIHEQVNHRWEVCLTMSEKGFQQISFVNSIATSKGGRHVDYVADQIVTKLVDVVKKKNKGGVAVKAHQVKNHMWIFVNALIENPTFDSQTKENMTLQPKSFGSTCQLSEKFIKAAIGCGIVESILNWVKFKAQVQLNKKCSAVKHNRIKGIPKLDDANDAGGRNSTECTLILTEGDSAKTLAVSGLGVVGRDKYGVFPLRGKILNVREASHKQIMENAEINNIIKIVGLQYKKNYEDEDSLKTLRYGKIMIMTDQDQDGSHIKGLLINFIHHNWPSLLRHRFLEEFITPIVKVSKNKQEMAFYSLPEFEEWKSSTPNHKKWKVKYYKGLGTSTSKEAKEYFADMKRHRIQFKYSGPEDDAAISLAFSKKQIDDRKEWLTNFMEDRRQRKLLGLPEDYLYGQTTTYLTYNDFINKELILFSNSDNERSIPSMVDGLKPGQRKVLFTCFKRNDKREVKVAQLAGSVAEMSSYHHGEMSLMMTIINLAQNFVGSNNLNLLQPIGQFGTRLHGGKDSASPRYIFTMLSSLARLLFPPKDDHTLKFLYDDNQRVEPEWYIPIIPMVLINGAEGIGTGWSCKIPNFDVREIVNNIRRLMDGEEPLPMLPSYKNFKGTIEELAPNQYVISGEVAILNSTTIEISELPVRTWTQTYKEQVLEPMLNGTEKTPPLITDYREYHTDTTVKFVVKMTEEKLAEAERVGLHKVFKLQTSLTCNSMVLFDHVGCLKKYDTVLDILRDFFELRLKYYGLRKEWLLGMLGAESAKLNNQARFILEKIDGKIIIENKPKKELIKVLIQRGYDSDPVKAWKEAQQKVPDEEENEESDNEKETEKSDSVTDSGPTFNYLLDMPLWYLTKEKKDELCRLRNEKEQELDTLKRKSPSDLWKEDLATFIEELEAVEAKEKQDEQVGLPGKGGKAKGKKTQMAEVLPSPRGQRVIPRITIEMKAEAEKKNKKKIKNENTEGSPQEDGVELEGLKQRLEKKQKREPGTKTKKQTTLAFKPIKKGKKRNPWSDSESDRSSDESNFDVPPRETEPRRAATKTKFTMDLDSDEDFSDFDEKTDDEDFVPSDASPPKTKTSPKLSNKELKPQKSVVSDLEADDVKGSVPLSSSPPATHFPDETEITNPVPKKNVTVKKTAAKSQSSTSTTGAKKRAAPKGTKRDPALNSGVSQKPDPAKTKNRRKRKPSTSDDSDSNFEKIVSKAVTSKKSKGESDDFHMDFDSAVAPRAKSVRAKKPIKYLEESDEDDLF

In the case of `Oc1ccc(-c2cc(-c3ccco3)nc3c2COc2ccccc2-3)cc1`, the inhibition (in general, the share of the control response that was lost under treatment) in assay [1] came to 6.8%; in assay [5], 0.5%; in assay [7], 95.6%. In addition, the IC50 (usually the midpoint of a concentration-inhibition curve) in assay [2] worked out at 850 nM; in assay [3] it was 4450 nM; in assay [4] it was 6880 nM; in assay [6] it was 1230 nM.
As for `Oc1cccc(-c2cc(-c3cccc(O)c3)c3c(n2)-c2ccccc2OC3)c1`, the inhibition in assay [1] turned out to be 1.9%; in assay [5], 4.3%; in assay [7], 93.3%. Moreover, the IC50 in assay [2] came out at 1770 nM; in assay [3], 1580 nM; in assay [4], 5810 nM; in assay [6], 4110 nM.
Consider `Oc1ccc(-c2cc(-c3ccsc3)nc3c2COc2ccccc2-3)cc1`, for which the figures for the inhibition in assay [1], in assay [5] and in assay [7] were 18.1%, 0% and 100%, respectively. For the same compound, the IC50 in assay [2] is 1900 nM; in assay [3], 390 nM; in assay [4] it was 5830 nM; in assay [6], 1660 nM.
With `Oc1ccc(-c2cc(-c3ccccc3O)c3c(n2)-c2ccccc2OC3)cc1`, the inhibition in assay [1] stood at 8%; in assay [5], 7.6%; in assay [7] it was 93.6%. The IC50 worked out at 2090 nM in assay [2], 1950 nM in assay [3], 2740 nM in assay [4] and 1660 nM in assay [6].
In the case of `Oc1ccc(-c2cc(-c3cccc(O)c3)nc3c2COc2ccccc2-3)cc1`, the inhibition in assay [1] came out at 7.6%; in assay [5], 1.8%; in assay [7], 93.5%. In addition, the IC50 in assay [2] stood at 670 nM; in assay [3] it was 810 nM; in assay [4], 2420 nM; in assay [6] it was 550 nM.
As to `Oc1ccc(-c2cc(-c3cccc(O)c3)c3c(n2)-c2ccccc2OC3)cc1`, the figures for the inhibition in assay [1], in assay [5] and in assay [7] were 1.8%, 5.3% and 93%, respectively. For the same compound, the IC50 was 2370 nM in assay [2], 2060 nM in assay [3], 4640 nM in assay [4] and 2980 nM in assay [6].
Consider `c1ccc(-c2cc(-c3ccccc3)c3c(n2)-c2ccccc2OC3)cc1`, for which the values for the IC50 in assay [2] and in assay [4] were 14200 nM and 6580 nM, respectively. Besides, the inhibition in assay [5] turned out to be 0%.
Turning to `COc1cccc2c1C(=O)c1c(O)c3c(c(O)c1C2=O)C[C@@](O)(C(=O)CO)C[C@@H]3O[C@H]1C[C@H](N)[C@H](O)[C@H](C)O1` [DOXORUBICIN], the values for the IC50 in assay [2], in assay [3] and in assay [4] were 1880 nM, 950 nM and 1230 nM, respectively.
Regarding `Oc1ccc(-c2cc(-c3ccccc3O)nc3c2COc2ccccc2-3)cc1`, the inhibition in assay [1] stood at 63.2%; in assay [5], 3.8%; in assay [7], 89.3%. Besides, the IC50 in assay [2] was 1290 nM; in assay [3], > 50000 nM; in assay [4] it was 24200 nM; in assay [6], 1560 nM.
Take `Oc1ccccc1-c1cc(-c2ccsc2)nc2c1COc1ccccc1-2`: the inhibition worked out at 29.7% in assay [1], 3.3% in assay [5] and 100% in assay [7]. The half-maximal inhibitory concentration (IC50) in assay [2] amounted to 2740 nM; in assay [3] it was 740 nM; in assay [4] it was 7170 nM; in assay [6], 3170 nM.
For `Oc1cccc(-c2cc(-c3ccsc3)nc3c2COc2ccccc2-3)c1`, the inhibition in assay [1] amounted to 31.7%; in assay [5], 68.6%; in assay [8], 0%; in assay [7], 100%. The IC50 in assay [2] was found to be 1180 nM; in assay [3] it was 3000 nM; in assay [4], 7260 nM; in assay [6] it was 1220 nM.
As for `Oc1cccc(-c2cc(-c3ccccc3O)c3c(n2)-c2ccccc2OC3)c1`, the results for the inhibition in assay [1], in assay [5] and in assay [7] were 4.8%, 3.3% and 92.1%, respectively. In addition, the half-inhibitory concentration (IC50) was 2170 nM in assay [2], 630 nM in assay [3], 3420 nM in assay [4] and 1010 nM in assay [6].
For the compound `Oc1cccc(-c2cc(-c3ccccc3O)nc3c2COc2ccccc2-3)c1`, the inhibition turned out to be 33.7% in assay [1], 2.4% in assay [5] and 88.6% in assay [7]. Besides, the IC50 in assay [2] turned out to be 3420 nM; in assay [3], 6370 nM; in assay [4], 4610 nM; in assay [6], 2110 nM.
On to `Oc1ccc(-c2cc(-c3ccccc3)nc3c2COc2ccccc2-3)cc1`, for which the inhibition in assay [1] stood at 16.1%; in assay [5], 2.1%; in assay [7], 94.1%. Further, the IC50 stood at 1350 nM in assay [2], 1560 nM in assay [3], 6350 nM in assay [4] and 15100 nM in assay [6].
Regarding `Oc1ccccc1-c1cc(-c2ccccc2O)c2c(n1)-c1ccccc1OC2`, the inhibition in assay [1] turned out to be 47.9%; in assay [5], 2.4%; in assay [7] it was 78%. For the same compound, the IC50 in assay [2] worked out at 2760 nM; in assay [3], 4690 nM; in assay [4], 8760 nM; in assay [6], 3580 nM.
Turning to `CC[C@@]1(O)C(=O)OCc2c1cc1n(c2=O)Cc2cc3ccccc3nc2-1` [CAMPTOTHECIN], the IC50 amounted to 80 nM in assay [2], 970 nM in assay [4] and 300 nM in assay [6].
As to `Oc1ccccc1-c1cc(-c2cccs2)nc2c1COc1ccccc1-2`, the figures for the inhibition in assay [1], in assay [5] and in assay [7] were 4.8%, 3.5% and 95.7%, respectively. Moreover, the IC50 turned out to be 2720 nM in assay [2], 5970 nM in assay [3], 5640 nM in assay [4] and 1940 nM in assay [6].
With `Oc1cccc(-c2cc(-c3ccccc3)nc3c2COc2ccccc2-3)c1`, the figures for the inhibition in assay [1], in assay [5] and in assay [7] were 10.9%, 1.5% and 94.8%, respectively. The IC50 in assay [2] is 760 nM; in assay [3] it was 2330 nM; in assay [4] it was 8520 nM; in assay [6], 3030 nM.
With `Oc1ccccc1-c1cc(-c2ccco2)nc2c1COc1ccccc1-2`, the inhibition worked out at 17% in assay [1], 3.9% in assay [5] and 91.5% in assay [7]. The IC50 in assay [2] was determined as 2980 nM; in assay [3], 2450 nM; in assay [4], 7980 nM; in assay [6] it was 2010 nM.
For `Oc1cccc(-c2cc(-c3cccs3)nc3c2COc2ccccc2-3)c1`, the inhibition in assay [1] turned out to be 41.2%; in assay [5] it was 6.6%; in assay [7] it was 99%. The IC50 worked out at 2240 nM in assay [2], 860 nM in assay [3], 6440 nM in assay [4] and 3170 nM in assay [6].
With `Oc1cccc(-c2cc(-c3ccco3)nc3c2COc2ccccc2-3)c1`, the inhibition worked out at 0% in assay [1], 1.4% in assay [5] and 84.9% in assay [7]. Also, the IC50 in assay [2] was found to be 3590 nM; in assay [3], 3100 nM; in assay [4] it was 8800 nM; in assay [6] it was 4770 nM.
For `COc1cc([C@@H]2c3cc4c(cc3[C@@H](O[C@@H]3O[C@@H]5CO[C@@H](C)O[C@H]5[C@H](O)[C@H]3O)[C@H]3COC(=O)[C@H]23)OCO4)cc(OC)c1O` [ETOPOSIDE], the IC50 in assay [2] amounted to 940 nM; in assay [3], 13100 nM; in assay [4] it was 10100 nM; in assay [6], 2600 nM.
With `Oc1ccccc1-c1cc(-c2ccccc2)nc2c1COc1ccccc1-2`, the inhibition in assay [1] stood at 10%; in assay [5], 3.6%; in assay [7], 84.7%. Besides, the IC50 in assay [2] is 3820 nM; in assay [3], 5010 nM; in assay [4], 8200 nM; in assay [6], 3470 nM.
With `Oc1ccc(-c2cc(-c3cccs3)nc3c2COc2ccccc2-3)cc1`, the inhibition in assay [1] was 25.8%; in assay [5] it was 1%; in assay [7] it was 91.7%. The IC50 in assay [2] worked out at 1210 nM; in assay [3] it was 830 nM; in assay [4], 6240 nM; in assay [6] it was 1520 nM.
Take `Oc1ccc(-c2cc(-c3ccc(O)cc3)c3c(n2)-c2ccccc2OC3)cc1`: the inhibition worked out at 10.3% in assay [1], 2.8% in assay [5] and 97.2% in assay [7]. Moreover, the IC50 in assay [2] turned out to be 780 nM; in assay [3] it was 3800 nM; in assay [4], 1900 nM; in assay [6] it was 690 nM.
